Patent US12114661B2, “Synergistically effective herbicide composition comprising metobromuron and clomazone” (BELCHIM CROP PROTECTION NV, priority 2018, dated 2024)

Experiments:
[1] = test system: Convolvolus arvensis; assay: Example 1 field trial, herbicidal effect, tank mixture; type: in vivo; details: 28 DAA
[2] = test system: Hibiscus trionum; assay: as above; type: in vivo; details: 28 DAA
[3] = test system: Setaria viridis; assay: as above; type: in vivo; details: 28 DAA
[4] = test system: Amaranthus retroflexus; assay: as above; type: in vivo; details: 49 DAA
[5] = test system: Echinochloa; assay: as above; type: in vivo; details: 29 DAA
[6] = test system: Chenopodium album (CHEAL); assay: Example 2 field trial, herbicidal effect, tank mixture; type: in vivo; details: 42-56 DAA
[7] = test system: Senecio vulgaris (SENVU); assay: as above; type: in vivo; details: 42-56 DAA
[8] = test system: Chenopodium album (CHEAL); assay: Example 3 field trial, herbicidal effect, tank mixture; type: in vivo; details: 42-56 DAA
[9] = test system: Merculiaris annua (MERAN); assay: as above; type: in vivo; details: 42-56 DAA
[10] = test system: Veronica sp. (VERSS); assay: as above; type: in vivo; details: 42-56 DAA
[11] = test system: Convolvolus arvensis; assay: Example 4 field trial, herbicidal effect, ready-to-use formulation; type: in vivo; details: 44 DAA
[12] = test system: Cypurus; assay: as above; type: in vivo; details: 35 DAA
[13] = test system: Solanum nigrum; assay: as above; type: in vivo; details: 35 DAA
[14] = test system: Persicaria maculosa; assay: as above; type: in vivo; details: 35 DAA
[15] = test system: Echinochloa crus galli; assay: as above; type: in vivo; details: 35 DAA
[16] = test system: Urtica urens; assay: as above; type: in vivo; details: 22 DAA
[17] = test system: Veronica persica; assay: as above; type: in vivo; details: 55 DAA
[18] = test system: Chenopodium album; assay: Example 5 field trial, herbicidal effect, ready-to-use formulation; type: in vivo; details: 41 DAA
[19] = test system: Galium aparine; assay: as above; type: in vivo; details: 25 DAA
[20] = test system: Amaranthus retroflexus; assay: as above; type: in vivo; details: 25 DAA
[21] = test system: Merculiaris annua; assay: as above; type: in vivo; details: 41 DAA
[22] = test system: Polygonum aviculare; assay: as above; type: in vivo; details: 38 DAA
[23] = test system: Solanum physalifolium; assay: as above; type: in vivo; details: 38 DAA
[24] = test system: Persicaria maculate; assay: as above; type: in vivo; details: 28 DAA
[25] = test system: Amaranthus retroflexus; assay: Example 6 field trial, herbicidal effect, ready-to-use formulation; type: in vivo; details: 18 DAA
[26] = test system: Merculiaris annua; assay: as above; type: in vivo; details: 18 DAA
[27] = test system: Persicaria laphatipholium; assay: as above; type: in vivo; details: 25 DAA
[28] = test system: Solanum nigrum; assay: as above; type: in vivo; details: 18 DAA
[29] = as above; type: in vivo, Panonicum ulmi; details: MTB 1200 g a.c./ha; 42 DAA
[30] = test system: Panonicum ulmi; assay: as above; type: in vivo; details: CLZ 72 g a.c./ha; 42 DAA

Compound: CON(C)C(=O)Nc1ccc(Br)cc1 [MTB, 3-(4-bromophenyl)-1-methoxy-1-methylurea]
- h.e. (herbicidal effect) ([1]; MTB 1200 g a.c./ha): 83%
- h.e. (herbicidal effect) ([2]; MTB 1200 g a.c./ha): 81%
- h.e. (herbicidal effect) ([3]; MTB 1200 g a.c./ha): 72%
- h.e. (herbicidal effect) ([4]; MTB 1200 g a.c./ha): 50%
- h.e. (herbicidal effect) ([5]; MTB 1200 g a.c./ha): 35%
- MTB h.e. ([6]; MTB 500 g a.c./ha): 61%
- MTB h.e. ([6]; MTB 1000 g a.c./ha): 69%
- MTB h.e. ([6]; MTB 1500 g a.c./ha): 79%
- MTB h.e. ([7]; MTB 500 g a.c./ha): 18%
- MTB h.e. ([7]; MTB 1000 g a.c./ha): 34%
- MTB h.e. ([7]; MTB 1500 g a.c./ha): 35%
- MTB h.e. ([8]; MTB 600 g a.c./ha): 69.3%
- MTB h.e. ([8]; MTB 1200 g a.c./ha): 93%
- MTB h.e. ([8]; MTB 1800 g a.c./ha): 98.3%
- MTB h.e. ([9]; MTB 600 g a.c./ha): 10%
- MTB h.e. ([9]; MTB 1200 g a.c./ha): 78.3%
- MTB h.e. ([9]; MTB 1800 g a.c./ha): 91%
- MTB h.e. ([10]; MTB 600 g a.c./ha): 20%
- MTB h.e. ([10]; MTB 1200 g a.c./ha): 35%
- MTB h.e. ([10]; MTB 1800 g a.c./ha): 97%
- h.e. (herbicidal effect) ([11]; MTB 400 g a.c./ha): 18%
- h.e. (herbicidal effect) ([12]; MTB 400 g a.c./ha): 50%
- h.e. (herbicidal effect) ([13]; MTB 400 g a.c./ha): 76%
- h.e. (herbicidal effect) ([14]; MTB 400 g a.c./ha): 79%
- h.e. (herbicidal effect) ([15]; MTB 400 g a.c./ha): 68%
- h.e. (herbicidal effect) ([16]; MTB 400 g a.c./ha): 37%
- h.e. (herbicidal effect) ([17]; MTB 400 g a.c./ha): 25%
- h.e. (herbicidal effect) ([18]; MTB 1000 g a.c./ha): 75%
- h.e. (herbicidal effect) ([19]; MTB 1000 g a.c./ha): 28%
- h.e. (herbicidal effect) ([20]; MTB 1000 g a.c./ha): 70%
- h.e. (herbicidal effect) ([21]; MTB 1000 g a.c./ha): 49%
- h.e. (herbicidal effect) ([22]; MTB 1000 g a.c./ha): 66%
- h.e. (herbicidal effect) ([23]; MTB 1000 g a.c./ha): 65%
- h.e. (herbicidal effect) ([24]; MTB 1000 g a.c./ha): 43%
- h.e. (herbicidal effect) ([25]; MTB 1200 g a.c./ha): 43%
- h.e. (herbicidal effect) ([26]; MTB 1200 g a.c./ha): 40%
- h.e. (herbicidal effect) ([27]; MTB 1200 g a.c./ha): 21%
- h.e. (herbicidal effect) ([28]; MTB 1200 g a.c./ha): 31%
- h.e. (herbicidal effect) [29]: 89%

Compound: CC1(C)CON(Cc2ccccc2Cl)C1=O [CLZ, 2-(2-chlorophenyl)methyl-4,4-dimethyl-3-isoxazolidinone]
- h.e. (herbicidal effect) ([1]; CLZ 72 g a.c./ha): 46%
- h.e. (herbicidal effect) ([2]; CLZ 72 g a.c./ha): 79%
- h.e. (herbicidal effect) ([3]; CLZ 72 g a.c./ha): 86%
- h.e. (herbicidal effect) ([4]; CLZ 72 g a.c./ha): 10%
- h.e. (herbicidal effect) ([5]; CLZ 72 g a.c./ha): 57%
- CLZ h.e. ([6]; CLZ 45 g a.c./ha): 6%
- CLZ h.e. ([6]; CLZ 67.5 g a.c./ha): 43%
- CLZ h.e. ([6]; CLZ 90 g a.c./ha): 53%
- CLZ h.e. ([7]; CLZ 45 g a.c./ha): 5%
- CLZ h.e. ([7]; CLZ 67.5 g a.c./ha): 40%
- CLZ h.e. ([7]; CLZ 90 g a.c./ha): 39%
- CLZ h.e. ([8]; CLZ 54 g a.c./ha): 46.7%
- CLZ h.e. ([8]; CLZ 72 g a.c./ha): 56.7%
- CLZ h.e. ([8]; CLZ 90 g a.c./ha): 63.3%
- CLZ h.e. ([9]; CLZ 54 g a.c./ha): 43.3%
- CLZ h.e. ([9]; CLZ 72 g a.c./ha): 50%
- CLZ h.e. ([9]; CLZ 90 g a.c./ha): 23.3%
- CLZ h.e. ([10]; CLZ 54 g a.c./ha): 43.3%
- CLZ h.e. ([10]; CLZ 72 g a.c./ha): 60%
- CLZ h.e. ([10]; CLZ 90 g a.c./ha): 16.7%
- h.e. (herbicidal effect) ([11]; CLZ 36 g a.c./ha): 30%
- h.e. (herbicidal effect) ([12]; CLZ 36 g a.c./ha): 67%
- h.e. (herbicidal effect) ([13]; CLZ 36 g a.c./ha): 52%
- h.e. (herbicidal effect) ([14]; CLZ 36 g a.c./ha): 28%
- h.e. (herbicidal effect) ([15]; CLZ 36 g a.c./ha): 63%
- h.e. (herbicidal effect) ([16]; CLZ 36 g a.c./ha): 0%
- h.e. (herbicidal effect) ([17]; CLZ 36 g a.c./ha): 0%
- h.e. (herbicidal effect) ([18]; CLZ 90 g a.c./ha): 28%
- h.e. (herbicidal effect) ([19]; CLZ 90 g a.c./ha): 33%
- h.e. (herbicidal effect) ([20]; CLZ 90 g a.c./ha): 10%
- h.e. (herbicidal effect) ([21]; CLZ 90 g a.c./ha): 50%
- h.e. (herbicidal effect) ([22]; CLZ 90 g a.c./ha): 78%
- h.e. (herbicidal effect) ([23]; CLZ 90 g a.c./ha): 61%
- h.e. (herbicidal effect) ([24]; CLZ 90 g a.c./ha): 80%
- h.e. (herbicidal effect) ([25]; CLZ 72 g a.c./ha): 77%
- h.e. (herbicidal effect) ([26]; CLZ 72 g a.c./ha): 60%
- h.e. (herbicidal effect) ([27]; CLZ 72 g a.c./ha): 34%
- h.e. (herbicidal effect) ([28]; CLZ 72 g a.c./ha): 66%
- h.e. (herbicidal effect) [30]: 0%
